Numbers after ± are expanded uncertainties.
Tests used:
[1] = wn = mass fraction of the nth substance listed; conditions: for surface tension liquid-gas: Ring tensiometer; for mass density: 101 kPa, Liquid, Vibrating tube method
[2] = Ring tensiometer

C[C@H](O)C(=O)O [(S)-2-hydroxypropanoic acid] + O
[1]
Conditions | mass density, w1 = 0.01 [kg/m3] | surface tension liquid-gas, w1 = 0.002 [mN/m] | surface tension liquid-gas, w1 = 0.004 [mN/m] | surface tension liquid-gas, w1 = 0.006 [mN/m] | surface tension liquid-gas, w1 = 0.008 [mN/m]
298 K | 999.5 ± 0.6 | 70.66 ± 0.9 | 69.69 ± 0.89 | 68.73 ± 0.88 | 67.69 ± 0.87
308 K | – | 69.32 ± 0.88 | 68.36 ± 0.87 | 67.63 ± 0.86 | 67.06 ± 0.86
318 K | – | 68.04 ± 0.87 | 67.36 ± 0.86 | 66.46 ± 0.85 | 65.96 ± 0.85
328 K | – | 67.07 ± 0.86 | 66.17 ± 0.85 | 65.34 ± 0.84 | 64.92 ± 0.83

NC(=O)CC[C@H](N)C(=O)O [L-glutamine] + O
[1]
Conditions | mass density, w1 = 0.005 [kg/m3] | surface tension liquid-gas, w1 = 0.00499 [mN/m] | surface tension liquid-gas, w1 = 0.00998 [mN/m] | surface tension liquid-gas, w1 = 0.01501 [mN/m] | surface tension liquid-gas, w1 = 0.02001 [mN/m] | surface tension liquid-gas, w1 = 0.02499 [mN/m] | surface tension liquid-gas, w1 = 0.02999 [mN/m]
298 K | 998.8 ± 0.6 | 71.43 ± 0.91 | 71.49 ± 0.91 | 71.53 ± 0.91 | 71.55 ± 0.91 | 71.55 ± 0.91 | 71.55 ± 0.91
308 K | – | 69.29 ± 0.88 | 69.65 ± 0.89 | 69.78 ± 0.89 | 69.89 ± 0.89 | 69.96 ± 0.89 | 70.02 ± 0.89
318 K | – | 68.34 ± 0.87 | 68.42 ± 0.87 | 68.59 ± 0.88 | 68.58 ± 0.88 | 68.64 ± 0.88 | 68.67 ± 0.88
328 K | – | 66.55 ± 0.85 | 66.69 ± 0.85 | 66.76 ± 0.85 | 66.85 ± 0.86 | 66.98 ± 0.86 | 67.04 ± 0.86

CSCC[C@H](N)C(=O)O [L-methionine] + O
[1]
Conditions | mass density, w1 = 0.005 [kg/m3] | surface tension liquid-gas, w1 = 0.005 [mN/m] | surface tension liquid-gas, w1 = 0.01 [mN/m] | surface tension liquid-gas, w1 = 0.02 [mN/m] | surface tension liquid-gas, w1 = 0.03 [mN/m] | surface tension liquid-gas, w1 = 0.04001 [mN/m]
298 K | 998.5 ± 0.6 | 71.39 ± 0.91 | 71.3 ± 0.91 | 71.02 ± 0.9 | 70.77 ± 0.9 | 70.61 ± 0.9
308 K | – | 69.89 ± 0.89 | 69.69 ± 0.89 | 69.45 ± 0.89 | 69.15 ± 0.88 | 68.9 ± 0.88
318 K | – | 68.4 ± 0.87 | 68.3 ± 0.87 | 68.06 ± 0.87 | 67.74 ± 0.87 | 67.28 ± 0.86
328 K | – | 66.65 ± 0.85 | 66.56 ± 0.85 | 66.32 ± 0.85 | 65.78 ± 0.84 | 64.97 ± 0.83

O=C(O)[C@@H]1CCCN1 [L-proline] + O
[1]
Conditions | mass density, w1 = 0.02 [kg/m3] | surface tension liquid-gas, w1 = 0.01996 [mN/m] | surface tension liquid-gas, w1 = 0.03996 [mN/m] | surface tension liquid-gas, w1 = 0.05995 [mN/m] | surface tension liquid-gas, w1 = 0.07996 [mN/m] | surface tension liquid-gas, w1 = 0.09995 [mN/m]
298 K | 1002.6 ± 0.6 | 71.56 ± 0.91 | 71.56 ± 0.91 | 71.55 ± 0.91 | 71.5 ± 0.91 | 71.45 ± 0.91
308 K | – | 70.14 ± 0.89 | 70.13 ± 0.89 | 70.12 ± 0.89 | 70.05 ± 0.89 | 69.95 ± 0.89
318 K | – | 68.51 ± 0.88 | 68.51 ± 0.88 | 68.46 ± 0.88 | 68.44 ± 0.88 | 68.4 ± 0.88
328 K | – | 66.8 ± 0.86 | 66.79 ± 0.86 | 66.75 ± 0.86 | 66.67 ± 0.85 | 66.46 ± 0.85

N[C@@H](CO)C(=O)O [L-serine] + O
[1]
Conditions | mass density, w1 = 0.005 [kg/m3] | surface tension liquid-gas, w1 = 0.00504 [mN/m] | surface tension liquid-gas, w1 = 0.01 [mN/m] | surface tension liquid-gas, w1 = 0.02001 [mN/m] | surface tension liquid-gas, w1 = 0.03 [mN/m] | surface tension liquid-gas, w1 = 0.03999 [mN/m] | surface tension liquid-gas, w1 = 0.05 [mN/m]
298 K | 999.1 ± 0.6 | 71.53 ± 0.91 | 71.64 ± 0.91 | 71.7 ± 0.91 | 71.85 ± 0.91 | 71.98 ± 0.92 | 72.12 ± 0.92
308 K | – | 69.85 ± 0.89 | 69.98 ± 0.89 | 70.15 ± 0.89 | 70.31 ± 0.9 | 70.44 ± 0.9 | 70.56 ± 0.9
318 K | – | 68.58 ± 0.88 | 68.6 ± 0.88 | 68.84 ± 0.88 | 68.87 ± 0.88 | 69.09 ± 0.88 | 69.23 ± 0.88
328 K | – | 66.76 ± 0.85 | 66.84 ± 0.86 | 67.01 ± 0.86 | 67.19 ± 0.86 | 67.28 ± 0.86 | 67.5 ± 0.86

CC(C)[C@H](N)C(=O)O [L-valine] + O
[1]
Conditions | mass density, w1 = 0.005 [kg/m3] | surface tension liquid-gas, w1 = 0.005 [mN/m] | surface tension liquid-gas, w1 = 0.01 [mN/m] | surface tension liquid-gas, w1 = 0.02 [mN/m] | surface tension liquid-gas, w1 = 0.03 [mN/m] | surface tension liquid-gas, w1 = 0.04 [mN/m]
298 K | 998.1 ± 0.6 | 70.53 ± 0.9 | 70.5 ± 0.9 | 69.48 ± 0.89 | 68.4 ± 0.87 | 67.12 ± 0.86
308 K | – | 69.19 ± 0.88 | 68.93 ± 0.88 | 68.17 ± 0.87 | 67.08 ± 0.86 | 66.41 ± 0.85
318 K | – | 67.61 ± 0.86 | 67.61 ± 0.86 | 66.54 ± 0.85 | 65.36 ± 0.84 | 64.53 ± 0.83
328 K | – | 66.3 ± 0.85 | 66.02 ± 0.85 | 65.14 ± 0.84 | 63.84 ± 0.82 | 63.26 ± 0.81

CCO [ethanol] + O
surface tension liquid-gas [mN/m], [1]
Conditions | w1 = 0.05 | w1 = 0.1 | w1 = 0.15 | w1 = 0.2
298 K | 55.14 ± 0.72 | 47.34 ± 0.63 | 41.96 ± 0.57 | 38.2 ± 0.52
313 K | 53.13 ± 0.7 | 45.92 ± 0.61 | 40.41 ± 0.55 | 36.71 ± 0.51

O=C(O)CC(O)C(=O)O (stereo not drawn) [hydroxybutanedioic acid] + O
[1]
Conditions | mass density, w1 = 0.01 [kg/m3] | surface tension liquid-gas, w1 = 0.01049 [mN/m] | surface tension liquid-gas, w1 = 0.02026 [mN/m] | surface tension liquid-gas, w1 = 0.03004 [mN/m] | surface tension liquid-gas, w1 = 0.04002 [mN/m] | surface tension liquid-gas, w1 = 0.06001 [mN/m] | surface tension liquid-gas, w1 = 0.07998 [mN/m] | surface tension liquid-gas, w1 = 0.1 [mN/m]
298 K | 1000.8 ± 0.6 | 71.39 ± 0.91 | 71.2 ± 0.91 | 71.09 ± 0.91 | 70.92 ± 0.9 | 70.61 ± 0.9 | 70.44 ± 0.9 | 70.2 ± 0.9
308 K | – | 69.64 ± 0.89 | 69.49 ± 0.89 | 69.42 ± 0.89 | 69.28 ± 0.89 | 69.18 ± 0.88 | 68.83 ± 0.88 | 68.62 ± 0.88
318 K | – | 68.16 ± 0.87 | 68.16 ± 0.87 | 68.11 ± 0.87 | 67.78 ± 0.87 | 67.63 ± 0.87 | 67.49 ± 0.87 | 67.25 ± 0.86
328 K | – | 66.67 ± 0.85 | 66.54 ± 0.85 | 66.48 ± 0.85 | 66.43 ± 0.85 | 66.24 ± 0.85 | 66.05 ± 0.85 | 65.89 ± 0.85

O [water]
[2]
Conditions | surface tension liquid-gas
298 K | 71.52 ± 0.91 mN/m [middle of 7 runs]
308 K | 69.73 ± 0.89 mN/m [middle of 7 runs]
313 K | 69.89 ± 0.89 mN/m
318 K | 68.48 ± 0.87 mN/m [middle of 7 runs]
328 K | 66.76 ± 0.85 mN/m [middle of 7 runs]

O [water] + CCO
[1], w2 = 0
Conditions | surface tension liquid-gas [mN/m]
298 K | 72.04 ± 0.92
313 K | 69.89 ± 0.89

O [water] + CSCC[C@H](N)C(=O)O
[1], w2 = 0
Conditions | surface tension liquid-gas [mN/m]
298 K | 71.52 ± 0.91
308 K | 69.94 ± 0.89
318 K | 68.54 ± 0.88
328 K | 66.78 ± 0.85

O [water] + C[C@H](O)C(=O)O
[1], w2 = 0
Conditions | surface tension liquid-gas [mN/m]
298 K | 71.53 ± 0.91
308 K | 70.02 ± 0.89
318 K | 68.48 ± 0.87
328 K | 67.18 ± 0.86

O [water] + NC(=O)CC[C@H](N)C(=O)O
[1], w2 = 0
Conditions | surface tension liquid-gas [mN/m]
298 K | 71.06 ± 0.9
308 K | 69.1 ± 0.88
318 K | 68.31 ± 0.87
328 K | 66.41 ± 0.85

O [water] + N[C@@H](CO)C(=O)O
[1], w2 = 0
Conditions | surface tension liquid-gas [mN/m]
298 K | 71.46 ± 0.91
308 K | 69.71 ± 0.89
318 K | 68.51 ± 0.87
328 K | 66.66 ± 0.85

O [water] + O=C(O)CC(O)C(=O)O
[1], w2 = 0
Conditions | surface tension liquid-gas [mN/m]
298 K | 71.52 ± 0.91
308 K | 69.73 ± 0.89
318 K | 68.3 ± 0.87
328 K | 66.81 ± 0.85

O [water] + O=C(O)[C@@H]1CCCN1
[1], w2 = 0
Conditions | surface tension liquid-gas [mN/m]
298 K | 71.61 ± 0.91
308 K | 70.1 ± 0.89
318 K | 68.56 ± 0.88
328 K | 66.76 ± 0.85
